Legend:
[1] = biological target: T1, Adenosine receptor A3 (Homo sapiens, UniProt P0DMS8)
T1 sequence (P0DMS8 whole entry): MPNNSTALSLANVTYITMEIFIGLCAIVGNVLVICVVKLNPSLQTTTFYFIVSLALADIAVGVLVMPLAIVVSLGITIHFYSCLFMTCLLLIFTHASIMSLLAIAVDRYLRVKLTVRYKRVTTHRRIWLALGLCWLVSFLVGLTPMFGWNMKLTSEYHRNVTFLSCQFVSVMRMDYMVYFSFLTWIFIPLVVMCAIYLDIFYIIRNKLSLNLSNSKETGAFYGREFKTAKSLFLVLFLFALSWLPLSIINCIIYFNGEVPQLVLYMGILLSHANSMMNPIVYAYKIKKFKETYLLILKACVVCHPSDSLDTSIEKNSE

[2] = biological target: T2, Gastrin/cholecystokinin type B receptor (Homo sapiens, UniProt P32239)
T2 sequence (P32239 whole entry): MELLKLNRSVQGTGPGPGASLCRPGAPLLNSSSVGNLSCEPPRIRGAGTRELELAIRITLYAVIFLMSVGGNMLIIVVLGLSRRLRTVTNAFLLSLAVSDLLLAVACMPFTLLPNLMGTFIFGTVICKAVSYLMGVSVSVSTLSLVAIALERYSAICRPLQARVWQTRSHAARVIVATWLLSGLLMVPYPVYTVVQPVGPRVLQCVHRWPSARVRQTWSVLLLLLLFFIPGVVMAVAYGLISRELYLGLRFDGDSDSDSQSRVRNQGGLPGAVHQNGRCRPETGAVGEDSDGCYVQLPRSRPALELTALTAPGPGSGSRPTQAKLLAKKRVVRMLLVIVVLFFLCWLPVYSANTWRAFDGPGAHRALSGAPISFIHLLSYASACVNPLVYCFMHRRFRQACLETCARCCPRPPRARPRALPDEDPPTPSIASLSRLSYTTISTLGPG

[3] = biological target: T3, Muscarinic acetylcholine receptor M1 (Homo sapiens, UniProt P11229); type: functional, cell-based
T3 sequence (P11229 whole entry): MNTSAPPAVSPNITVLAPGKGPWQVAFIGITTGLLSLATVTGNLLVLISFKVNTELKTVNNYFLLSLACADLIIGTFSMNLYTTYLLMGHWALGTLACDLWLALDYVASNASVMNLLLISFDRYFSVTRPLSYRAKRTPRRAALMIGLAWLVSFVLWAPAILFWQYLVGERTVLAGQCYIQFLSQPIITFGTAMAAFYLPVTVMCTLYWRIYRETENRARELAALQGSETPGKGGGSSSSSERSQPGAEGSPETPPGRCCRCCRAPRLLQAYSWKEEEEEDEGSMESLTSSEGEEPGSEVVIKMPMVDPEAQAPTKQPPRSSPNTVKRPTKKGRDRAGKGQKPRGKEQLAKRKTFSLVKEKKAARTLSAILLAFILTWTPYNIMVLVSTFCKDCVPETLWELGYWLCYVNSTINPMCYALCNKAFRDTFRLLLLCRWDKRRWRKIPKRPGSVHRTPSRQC

[4] = biological target: Gamma-aminobutyric acid receptor subunit alpha-1/alpha-2/beta-2/gamma-2 (Homo sapiens, UniProt P14867+P18507+P47869+P47870); type: protein-complex assay
[5] = biological target: Histamine H2 receptor (Homo sapiens, UniProt P25021); type: functional, cell-based
[6] = biological target: T4, 5-hydroxytryptamine receptor 1A (Homo sapiens, UniProt P08908); type: functional, cell-based
T4 sequence (P08908 whole entry): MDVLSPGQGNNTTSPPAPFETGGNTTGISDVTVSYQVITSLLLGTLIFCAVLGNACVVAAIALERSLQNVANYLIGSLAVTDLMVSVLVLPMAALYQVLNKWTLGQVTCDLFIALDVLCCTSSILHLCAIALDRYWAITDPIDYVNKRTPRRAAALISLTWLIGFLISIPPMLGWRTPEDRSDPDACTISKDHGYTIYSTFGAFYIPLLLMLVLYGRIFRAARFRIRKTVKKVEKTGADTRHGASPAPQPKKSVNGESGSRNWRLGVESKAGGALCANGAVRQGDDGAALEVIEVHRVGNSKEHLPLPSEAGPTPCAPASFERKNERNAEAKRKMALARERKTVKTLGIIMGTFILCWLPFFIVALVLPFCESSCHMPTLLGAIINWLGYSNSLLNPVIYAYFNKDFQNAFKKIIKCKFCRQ

[7] = biological target: 5-hydroxytryptamine receptor 2B (Homo sapiens, UniProt P41595); type: functional, cell-based
[8] = biological target: 3',5'-cyclic-AMP phosphodiesterase 4D (Homo sapiens, UniProt Q08499); type: functional
[9] = biological target: T5, Thromboxane A2 receptor (Homo sapiens, UniProt P21731)
T5 sequence (P21731 whole entry): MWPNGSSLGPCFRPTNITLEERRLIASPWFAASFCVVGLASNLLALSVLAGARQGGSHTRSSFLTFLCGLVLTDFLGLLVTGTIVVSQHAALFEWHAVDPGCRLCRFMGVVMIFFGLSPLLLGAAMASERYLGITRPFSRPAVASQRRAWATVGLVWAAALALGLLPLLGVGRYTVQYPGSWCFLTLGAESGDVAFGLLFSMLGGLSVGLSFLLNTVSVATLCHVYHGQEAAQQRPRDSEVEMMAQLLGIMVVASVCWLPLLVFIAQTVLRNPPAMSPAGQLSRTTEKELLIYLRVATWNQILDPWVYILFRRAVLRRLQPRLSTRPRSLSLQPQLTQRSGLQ

[10] = biological target: T6, Alpha-1A adrenergic receptor (Homo sapiens, UniProt P35348); type: functional, cell-based
T6 sequence (P35348 whole entry): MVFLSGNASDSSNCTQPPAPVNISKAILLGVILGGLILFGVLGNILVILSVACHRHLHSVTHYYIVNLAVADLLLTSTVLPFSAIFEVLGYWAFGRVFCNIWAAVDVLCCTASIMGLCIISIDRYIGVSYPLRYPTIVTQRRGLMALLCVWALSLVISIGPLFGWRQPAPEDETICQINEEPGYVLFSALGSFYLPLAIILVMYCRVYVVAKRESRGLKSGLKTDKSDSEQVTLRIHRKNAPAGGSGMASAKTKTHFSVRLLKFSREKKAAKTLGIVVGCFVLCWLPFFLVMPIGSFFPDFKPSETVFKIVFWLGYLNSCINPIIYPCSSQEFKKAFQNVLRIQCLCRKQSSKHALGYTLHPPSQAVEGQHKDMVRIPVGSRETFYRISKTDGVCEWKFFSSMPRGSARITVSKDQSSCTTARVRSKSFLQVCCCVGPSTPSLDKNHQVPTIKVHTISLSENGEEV

[11] = biological target: Beta-2 adrenergic receptor (Homo sapiens, UniProt P07550); type: functional, cell-based
Note: assay procedure not described here.

Chain of 3',5'-cyclic-AMP phosphodiesterase 4D (Q08499 whole entry): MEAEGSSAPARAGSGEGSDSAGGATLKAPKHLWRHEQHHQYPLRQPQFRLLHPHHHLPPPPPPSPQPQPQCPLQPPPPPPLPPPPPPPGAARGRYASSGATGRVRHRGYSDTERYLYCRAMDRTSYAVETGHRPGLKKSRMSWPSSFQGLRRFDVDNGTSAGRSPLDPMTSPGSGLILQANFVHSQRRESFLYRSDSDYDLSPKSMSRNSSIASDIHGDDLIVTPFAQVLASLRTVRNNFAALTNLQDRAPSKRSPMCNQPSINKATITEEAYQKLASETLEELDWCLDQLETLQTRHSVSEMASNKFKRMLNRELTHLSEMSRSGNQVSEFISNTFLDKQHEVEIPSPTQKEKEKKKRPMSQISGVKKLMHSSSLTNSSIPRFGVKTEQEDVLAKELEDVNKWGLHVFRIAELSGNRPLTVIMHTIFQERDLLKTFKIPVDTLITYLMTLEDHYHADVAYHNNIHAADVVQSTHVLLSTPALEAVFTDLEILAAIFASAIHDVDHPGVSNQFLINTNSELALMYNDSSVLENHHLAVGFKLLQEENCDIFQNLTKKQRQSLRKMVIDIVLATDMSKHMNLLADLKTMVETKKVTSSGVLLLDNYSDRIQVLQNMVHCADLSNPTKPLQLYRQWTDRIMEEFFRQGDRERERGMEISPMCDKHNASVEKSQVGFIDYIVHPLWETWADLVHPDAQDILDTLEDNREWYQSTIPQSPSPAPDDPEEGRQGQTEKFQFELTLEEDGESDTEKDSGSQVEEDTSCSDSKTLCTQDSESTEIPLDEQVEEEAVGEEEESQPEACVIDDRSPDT
Chain of Gamma-aminobutyric acid receptor subunit alpha-1/alpha-2/beta-2/gamma-2 (P14867 whole entry): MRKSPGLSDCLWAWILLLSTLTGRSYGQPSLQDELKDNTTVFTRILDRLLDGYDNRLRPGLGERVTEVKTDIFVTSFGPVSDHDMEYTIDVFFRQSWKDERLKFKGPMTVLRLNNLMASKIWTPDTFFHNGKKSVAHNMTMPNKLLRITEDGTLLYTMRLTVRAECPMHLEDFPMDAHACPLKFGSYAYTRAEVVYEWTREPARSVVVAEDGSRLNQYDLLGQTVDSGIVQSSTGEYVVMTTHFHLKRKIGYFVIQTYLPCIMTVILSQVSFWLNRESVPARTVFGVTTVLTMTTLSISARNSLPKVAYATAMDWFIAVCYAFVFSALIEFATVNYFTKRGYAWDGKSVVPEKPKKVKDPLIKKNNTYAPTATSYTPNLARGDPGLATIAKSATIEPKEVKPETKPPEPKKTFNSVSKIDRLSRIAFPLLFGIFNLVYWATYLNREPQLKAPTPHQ
Chain of Gamma-aminobutyric acid receptor subunit alpha-1/alpha-2/beta-2/gamma-2 (P47870 whole entry): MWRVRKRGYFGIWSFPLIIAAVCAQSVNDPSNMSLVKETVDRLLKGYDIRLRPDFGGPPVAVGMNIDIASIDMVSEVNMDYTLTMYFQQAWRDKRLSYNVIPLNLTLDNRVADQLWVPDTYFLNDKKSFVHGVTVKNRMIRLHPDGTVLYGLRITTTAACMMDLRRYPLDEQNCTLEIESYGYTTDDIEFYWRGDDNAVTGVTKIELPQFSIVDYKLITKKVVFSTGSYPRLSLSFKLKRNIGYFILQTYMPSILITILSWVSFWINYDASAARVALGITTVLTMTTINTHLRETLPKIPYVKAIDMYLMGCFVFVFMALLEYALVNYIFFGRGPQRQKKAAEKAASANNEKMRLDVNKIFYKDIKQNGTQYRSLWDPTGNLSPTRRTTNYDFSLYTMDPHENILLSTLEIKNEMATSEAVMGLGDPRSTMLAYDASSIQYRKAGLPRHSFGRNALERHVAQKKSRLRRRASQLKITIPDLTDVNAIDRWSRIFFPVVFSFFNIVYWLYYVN
Chain of Gamma-aminobutyric acid receptor subunit alpha-1/alpha-2/beta-2/gamma-2 (P18507 whole entry): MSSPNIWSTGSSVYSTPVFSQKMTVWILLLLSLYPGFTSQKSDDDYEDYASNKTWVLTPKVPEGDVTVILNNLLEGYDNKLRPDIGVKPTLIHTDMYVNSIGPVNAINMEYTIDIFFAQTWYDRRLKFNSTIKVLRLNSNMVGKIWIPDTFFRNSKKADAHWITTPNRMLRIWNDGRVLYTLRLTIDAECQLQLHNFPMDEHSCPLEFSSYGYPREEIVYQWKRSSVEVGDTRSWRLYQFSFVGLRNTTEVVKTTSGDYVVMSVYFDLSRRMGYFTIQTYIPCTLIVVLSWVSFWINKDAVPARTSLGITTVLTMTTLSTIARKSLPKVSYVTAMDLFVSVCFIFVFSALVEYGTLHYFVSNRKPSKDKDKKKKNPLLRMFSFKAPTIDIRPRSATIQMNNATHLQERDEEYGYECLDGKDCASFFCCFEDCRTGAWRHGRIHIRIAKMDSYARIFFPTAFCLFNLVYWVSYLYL
Chain of Gamma-aminobutyric acid receptor subunit alpha-1/alpha-2/beta-2/gamma-2 (P47869 whole entry): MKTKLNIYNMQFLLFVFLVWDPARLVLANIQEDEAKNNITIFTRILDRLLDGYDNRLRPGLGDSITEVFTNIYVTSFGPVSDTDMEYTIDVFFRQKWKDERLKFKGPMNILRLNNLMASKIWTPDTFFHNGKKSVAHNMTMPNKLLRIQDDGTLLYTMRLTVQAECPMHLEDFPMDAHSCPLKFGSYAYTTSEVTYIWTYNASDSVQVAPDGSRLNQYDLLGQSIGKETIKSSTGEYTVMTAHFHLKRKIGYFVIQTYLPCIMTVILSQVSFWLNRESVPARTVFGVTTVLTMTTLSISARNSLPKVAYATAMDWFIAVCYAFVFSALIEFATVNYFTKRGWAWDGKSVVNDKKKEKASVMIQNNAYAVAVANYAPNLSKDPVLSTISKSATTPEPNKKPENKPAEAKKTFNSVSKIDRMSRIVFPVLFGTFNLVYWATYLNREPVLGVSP
Chain of 5-hydroxytryptamine receptor 2B (P41595 whole entry): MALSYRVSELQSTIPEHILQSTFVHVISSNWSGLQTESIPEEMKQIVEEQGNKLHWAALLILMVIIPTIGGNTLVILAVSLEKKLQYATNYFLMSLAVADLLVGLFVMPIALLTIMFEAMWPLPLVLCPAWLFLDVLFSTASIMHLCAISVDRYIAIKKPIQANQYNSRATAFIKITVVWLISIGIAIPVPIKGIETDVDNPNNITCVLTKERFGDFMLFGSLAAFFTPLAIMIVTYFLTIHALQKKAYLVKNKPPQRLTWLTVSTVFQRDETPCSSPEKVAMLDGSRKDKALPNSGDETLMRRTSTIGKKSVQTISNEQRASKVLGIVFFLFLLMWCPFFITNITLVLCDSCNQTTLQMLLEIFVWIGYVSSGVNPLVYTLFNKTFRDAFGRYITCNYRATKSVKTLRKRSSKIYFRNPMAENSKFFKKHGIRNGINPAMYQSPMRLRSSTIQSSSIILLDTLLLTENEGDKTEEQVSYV
Chain of Histamine H2 receptor (P25021 whole entry): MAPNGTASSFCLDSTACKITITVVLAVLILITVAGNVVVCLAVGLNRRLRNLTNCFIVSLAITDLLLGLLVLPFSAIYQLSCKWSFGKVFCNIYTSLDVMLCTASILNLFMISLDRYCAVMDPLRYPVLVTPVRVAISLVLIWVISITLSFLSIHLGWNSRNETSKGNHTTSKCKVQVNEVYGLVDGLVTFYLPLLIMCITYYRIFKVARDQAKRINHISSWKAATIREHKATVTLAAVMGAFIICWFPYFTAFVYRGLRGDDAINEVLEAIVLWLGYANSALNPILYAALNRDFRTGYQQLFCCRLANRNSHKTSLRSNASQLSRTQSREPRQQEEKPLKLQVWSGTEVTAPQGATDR
Chain of Beta-2 adrenergic receptor (P07550 whole entry): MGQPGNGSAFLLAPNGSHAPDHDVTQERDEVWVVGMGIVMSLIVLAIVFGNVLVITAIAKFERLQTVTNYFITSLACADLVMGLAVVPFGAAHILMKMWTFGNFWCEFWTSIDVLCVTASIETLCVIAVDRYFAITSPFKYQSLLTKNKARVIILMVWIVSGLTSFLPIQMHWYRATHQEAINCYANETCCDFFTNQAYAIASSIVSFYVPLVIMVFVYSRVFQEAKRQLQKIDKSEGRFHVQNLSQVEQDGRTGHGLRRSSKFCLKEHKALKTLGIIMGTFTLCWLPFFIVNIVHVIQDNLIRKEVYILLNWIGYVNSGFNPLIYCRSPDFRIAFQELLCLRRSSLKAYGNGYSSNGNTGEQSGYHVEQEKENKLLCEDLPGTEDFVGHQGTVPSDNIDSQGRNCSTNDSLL

## CC(=O)Oc1ccccc1C(=O)Nc1ncc([N+](=O)[O-])s1 [NITAZOXANIDE]
[1]
  AC50: 5 µM
[2]
  AC50: 10 µM
[3]
  AC50: 4.33 µM
[4]
  AC50: > 30 µM
[5]
  AC50: > 30 µM
[6]
  AC50: > 30 µM
[7]
  AC50: > 30 µM
[8]
  AC50: > 30 µM
[9]
  AC50: 5 µM
[10]
  AC50: 8.6 µM

## CCCCCCCCCCC[C@@H](C[C@@H]1OC(=O)[C@H]1CCCCCC)OC(=O)[C@H](CC(C)C)NC=O [ORLISTAT]
[3]
  AC50: > 30 µM
[4]
  AC50: > 30 µM

## O=C1[C@H]2CCCC[C@H]2C(=O)N1CCCCN1CCN(c2nsc3ccccc23)CC1 [PEROSPIRONE]
[3]
  AC50: 10.3 µM
[4]
  AC50: > 30 µM

## CN(C)CCC(c1ccccc1)c1ccccn1 (centres undefined) [PHENIRAMINE]
[3]
  AC50: > 30 µM
[4]
  AC50: > 30 µM

## CC(C)(C)C(=O)NCCCC(=O)O [PIVAGABINE]
[3]
  AC50: > 30 µM
[4]
  AC50: > 30 µM

## CC(C)[N+](C)(CCOC(=O)C1c2ccccc2Oc2ccccc21)C(C)C [PROPANTHELINE]
[3]
  AC50: 0.003 µM
[4]
  AC50: > 30 µM

## CN(C)C(=O)c1nc(CNC(=O)CN)n(-c2ccc(Cl)cc2C(=O)c2ccccc2Cl)n1 [RILMAZAFONE]
[3]
  AC50: > 30 µM
[4]
  AC50: > 30 µM

## CC(C)N(CCCCOCC(=O)NS(C)(=O)=O)c1cnc(-c2ccccc2)c(-c2ccccc2)n1 [SELEXIPAG]
[1]
  AC50: 7.89 µM
[11]
  AC50: > 30 µM
[2]
  AC50: > 10 µM
[5]
  AC50: > 30 µM
[6]
  AC50: > 30 µM
[7]
  AC50: > 30 µM
[8]
  AC50: 4.81 µM
[9]
  AC50: 23.9 µM
[10]
  AC50: 7.2 µM

## CC(=O)S[C@@H]1CC2=CC(=O)CC[C@]2(C)[C@H]2CC[C@@]3(C)[C@@H](CC[C@@]34CCC(=O)O4)[C@H]12 [SPIRONOLACTONE]
[1]
  AC50: > 30 µM
[11]
  AC50: > 30 µM
[2]
  AC50: > 30 µM
[5]
  AC50: > 10 µM
[6]
  AC50: > 30 µM
[7]
  AC50: > 30 µM
[8]
  AC50: > 30 µM
[9]
  AC50: > 30 µM
[10]
  AC50: > 30 µM

## NC(=O)NS(=O)(=O)c1ccc(N)cc1 [SULFACARBAMIDE]
[3]
  AC50: > 30 µM
[4]
  AC50: > 30 µM

## CCCCCCCCNC(C)C(O)c1ccc(SC(C)C)cc1 (centres undefined) [SULOCTIDIL]
[4]
  AC50: > 10 µM

## CCCCCCCCCCCCCCCC(=O)OC/C=C(C)/C=C/C=C(C)/C=C/C1=C(C)CCCC1(C)C [VITAMIN A PALMITATE]
[3]
  AC50: > 30 µM
[4]
  AC50: > 30 µM

## Cc1cc(CC(=O)O)n(C)c1C(=O)c1ccc(Cl)cc1 [ZOMEPIRAC]
[1]
  AC50: > 30 µM
[11]
  AC50: > 30 µM
[2]
  AC50: > 30 µM
[5]
  AC50: > 30 µM
[6]
  AC50: > 30 µM
[7]
  AC50: > 30 µM
[8]
  AC50: > 30 µM
[9]
  AC50: > 30 µM
[10]
  AC50: > 30 µM
